Tests used:
Mouse AhR = molecular target: T1, Mouse AhR (Mus musculus, UniProt P30561); test: Transactivation assay in mouse cell line (in vitro assay 2): antagonism; type: cell-based; conditions: Hepa 1c1c7 cells, AHR inducible firefly luciferase reporter (DRE), 200 μM kynurenic acid, 20 hours
T1 sequence (P30561 1-848 P471L/N533S/M589L): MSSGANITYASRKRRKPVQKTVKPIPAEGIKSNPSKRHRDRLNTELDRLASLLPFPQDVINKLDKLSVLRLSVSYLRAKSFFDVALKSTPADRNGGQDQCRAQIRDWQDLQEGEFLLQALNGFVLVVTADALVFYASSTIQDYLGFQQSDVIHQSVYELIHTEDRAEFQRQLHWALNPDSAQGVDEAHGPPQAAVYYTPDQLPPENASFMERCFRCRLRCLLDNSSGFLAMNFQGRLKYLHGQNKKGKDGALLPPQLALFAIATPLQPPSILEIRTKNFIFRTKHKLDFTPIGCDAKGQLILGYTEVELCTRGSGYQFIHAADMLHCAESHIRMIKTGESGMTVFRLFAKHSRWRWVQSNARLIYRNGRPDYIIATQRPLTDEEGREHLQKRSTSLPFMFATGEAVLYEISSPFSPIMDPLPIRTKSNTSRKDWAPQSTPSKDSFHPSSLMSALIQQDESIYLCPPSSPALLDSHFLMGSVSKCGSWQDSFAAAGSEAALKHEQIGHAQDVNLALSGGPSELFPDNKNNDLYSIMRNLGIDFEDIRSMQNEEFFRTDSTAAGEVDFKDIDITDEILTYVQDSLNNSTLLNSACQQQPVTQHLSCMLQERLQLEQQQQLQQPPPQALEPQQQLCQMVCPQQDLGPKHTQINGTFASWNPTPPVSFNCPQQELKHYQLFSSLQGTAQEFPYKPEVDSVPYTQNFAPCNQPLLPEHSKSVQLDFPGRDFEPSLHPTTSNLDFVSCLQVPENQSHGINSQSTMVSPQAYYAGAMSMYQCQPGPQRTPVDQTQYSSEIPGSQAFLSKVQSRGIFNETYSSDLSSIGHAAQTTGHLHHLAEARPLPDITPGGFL
Protocol: (§1) Examples were tested in selected biological assays one or more times. When tested more than once, data are reported as either average values or as median values, wherein • the average value, also referred to as the arithmetic mean value, represents the sum of the values obtained divided by the number of times tested, and • the median value represents the middle number of the group of values when ranked in ascending or descending order. If the number of values in the data set is odd, the median is the middle value. If the number of values in the data set is even, the median is the arithmetic mean of the two middle values.
Transactivation Assay in Mouse Cell Line (In Vitro Assay 2)
(§2) Transactivation assay was carried out in Hepa 1c1c7 cells (ATCC #CRL-2026) endogenously expressing AHR. In addition the cells were stably transfected with an AHR inducible firefly luciferase reporter gene construct that carried AHR-binding sites (DRE) in its promoter. Kynurenic acid is an endogenous AHR activating ligand and was used to prestimulate test cells prior to testing the antagonistic properties of compounds.
In Vitro Assay 2: Antagonism in Mouse Cell Line
Firefly luciferase activity was determined by the SteadyGlo Luciferase Assay System (Promega, #E2550).

Human AhR = molecular target: T2, Human AhR (Homo sapiens, UniProt P35869); test: Transactivation assay in human cell line (in vitro assay 1): antagonism; type: cell-based; conditions: U87 glioblastoma cells, AHR inducible firefly luciferase reporter (DRE), 150 μM kynurenic acid, 20 hours
T2 construct: host or cells: U87 glioblastoma cells, stably transfected with a DRE firefly luciferase reporter and a constitutive renilla reporter
T2 sequence (P35869 11-848): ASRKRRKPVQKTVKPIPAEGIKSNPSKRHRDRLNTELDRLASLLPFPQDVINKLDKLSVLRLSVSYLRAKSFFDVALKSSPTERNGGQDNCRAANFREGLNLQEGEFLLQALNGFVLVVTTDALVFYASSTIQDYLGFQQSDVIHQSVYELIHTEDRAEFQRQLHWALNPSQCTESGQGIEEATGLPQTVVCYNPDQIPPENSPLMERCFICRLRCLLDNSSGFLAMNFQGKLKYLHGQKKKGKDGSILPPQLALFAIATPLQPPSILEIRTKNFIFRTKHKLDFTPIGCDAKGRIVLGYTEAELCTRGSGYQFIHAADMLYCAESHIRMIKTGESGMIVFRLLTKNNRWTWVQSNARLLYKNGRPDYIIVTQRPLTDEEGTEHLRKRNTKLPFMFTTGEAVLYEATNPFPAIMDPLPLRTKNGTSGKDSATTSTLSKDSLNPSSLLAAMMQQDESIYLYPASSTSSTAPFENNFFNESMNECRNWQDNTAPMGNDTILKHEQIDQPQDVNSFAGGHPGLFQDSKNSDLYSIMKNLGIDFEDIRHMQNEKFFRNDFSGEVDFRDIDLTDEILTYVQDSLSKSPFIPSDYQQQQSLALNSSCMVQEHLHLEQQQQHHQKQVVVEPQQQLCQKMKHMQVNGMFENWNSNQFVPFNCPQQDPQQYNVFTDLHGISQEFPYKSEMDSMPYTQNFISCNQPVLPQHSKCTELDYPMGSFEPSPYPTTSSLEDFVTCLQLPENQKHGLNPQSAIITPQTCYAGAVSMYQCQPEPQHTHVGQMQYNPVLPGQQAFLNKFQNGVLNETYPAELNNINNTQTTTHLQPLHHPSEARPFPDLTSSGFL
Protocol: as §1
Transactivation Assay in Human Cell Line (In Vitro Assay 1)
as §2, with “U87 glioblastoma” for “Hepa 1c1c7”, “(ATCC)” for “(ATCC #CRL-2026)”, “its promoter and a renilla reporter gene construct with constitutively active” for “its”
In Vitro Assay 1: Antagonism in Human Cell Line
Firefly luciferase and Renilla activity was determined by the DualGlo Luciferase Assay System (Promega, #2920). Renilla activity was used to assess toxic effects of compounds.

SMILES | IC50 (Mouse AhR) [nM] | IC50 (Human AhR) [nM]
C[C@@H](CO)NC(=O)c1cc(-c2ccc(OC(F)(F)F)cc2)nc(-c2cccc(Cl)c2)n1 [Example 37, 2-(3-chlorophenyl)-N-[(2S)-1-hydroxypropan-2-yl]-6-[4-(trifluoromethoxy)phenyl]pyrimidine-4-carboxamide] | 8.49 | 
Cc1cc(-c2nc(C(=O)NCC(C)(C)O)cc(-c3ccc(Cl)cc3)n2)ccc1F [Example 49, 6-(4-chlorophenyl)-2-(4-fluoro-3-methylphenyl)-N-(2-hydroxy-2-methylpropyl)pyrimidine-4-carboxamide] | 406 | 
Cc1cc(-c2nc(C(=O)N[C@@H](C)CO)cc(-c3ccc(OC(F)(F)F)cc3)n2)ccc1F [Example 32, 2-(4-fluoro-3-methylphenyl)-N-[(2S)-1-hydroxypropan-2-yl]-6-[4-(trifluoromethoxy)phenyl]pyrimidine-4-carboxamide] | 384 | 167
C[C@@H](CO)NC(=O)c1cc(-c2cccc(F)c2)nc(-c2ccc(C(F)(F)F)cc2)n1 [Example 9, 6-(3-Fluorophenyl)-N-[(2S)-1-hydroxypropan-2-yl]-2-[4-(trifluoromethyl)phenyl]pyrimidine-4-carboxamide] | 8.64 | 15.3
Cc1cccc(-c2nc(C(=O)NCC(C)(C)O)cc(-c3ccc(OC(F)(F)F)cc3)n2)c1 [Example 16, N-(2-hydroxy-2-methylpropyl)-2-(3-methylphenyl)-6-[4-(trifluoromethoxy)phenyl]pyrimidine-4-carboxamide] | 12.9 | 
C[C@@H](CO)NC(=O)c1cc(-c2cccc(F)c2)nc(-c2ccc(Cl)cc2)n1 [Example 10, 2-(4-Chlorophenyl)-6-(3-fluorophenyl)-N-[(2S)-1-hydroxypropan-2-yl]pyrimidine-4-carboxamide] | 23.8 | 35.3
CC(C)(O)CNC(=O)c1cc(-c2ccc(OC(F)(F)F)cc2)nc(-c2cccc(F)c2)n1 [Example 7, 2-(3-Fluorophenyl)-N-(2-hydroxy-2-methylpropyl)-6-[4-(trifluoromethoxy)phenyl]pyrimidine-4-carboxamide] | > 20000 | > 20000
C[C@H](CO)NC(=O)c1cc(-c2ccc(Cl)cc2)nc(-c2cccc(F)c2)n1 [Example 2, 6-(4-Chlorophenyl)-2-(3-fluorophenyl)-N-[(2R)-1-hydroxypropan-2-yl]pyrimidine-4-carboxamide] | 13.3 | 5.88
C[C@@H](CO)NC(=O)c1cc(-c2cccc(F)c2)nc(-c2ccc(OC(F)(F)F)cc2)n1 [Example 11, 6-(3-Fluorophenyl)-N-[(2S)-1-hydroxypropan-2-yl]-2-[4-(trifluoromethoxy)phenyl]pyrimidine-4-carboxamide] | 11.5 | 41.1
CC(C)(O)CNC(=O)c1cc(-c2ccc(Cl)cc2)nc(-c2ccc(C(F)F)cc2)n1 [Example 61, 6-(4-chlorophenyl)-2-[4-(difluoromethyl)phenyl]-N-(2-hydroxy-2-methylpropyl)pyrimidine-4-carboxamide] | 7120 | > 20000
C[C@@H](CO)NC(=O)c1cc(-c2ccc(Cl)cc2)nc(-c2cccc(Cl)c2)n1 [Example 71, 2-(3-chlorophenyl)-6-(4-chlorophenyl)-N-[(2S)-1-hydroxypropan-2-yl]pyrimidine-4-carboxamide] | 13.6 | 
COc1ccc(-c2nc(C(=O)N[C@@H](C)CO)cc(-c3ccc(Cl)cc3)n2)cc1 [Example 63, 6-(4-chlorophenyl)-N-[(2S)-1-hydroxypropan-2-yl]-2-(4-methoxyphenyl)pyrimidine-4-carboxamide] | 5150 | 392
Cc1cc(F)cc(-c2nc(C(=O)NCC(C)(C)O)cc(-c3ccc(Cl)cc3)n2)c1 [Example 60, 6-(4-chlorophenyl)-2-(3-fluoro-5-methylphenyl)-N-(2-hydroxy-2-methylpropyl)pyrimidine-4-carboxamide] | 908 | 
CC(C)(O)CNC(=O)c1cc(-c2ccc(Cl)cc2)nc(-c2ccc(F)c(Cl)c2)n1 [Example 50, 2-(3-chloro-4-fluorophenyl)-6-(4-chlorophenyl)-N-(2-hydroxy-2-methylpropyl)pyrimidine-4-carboxamide] | 53.8 | 
C[C@@H](CO)NC(=O)c1cc(-c2ccc(Cl)cc2)nc(-c2cc(F)cc(F)c2)n1 [Example 74, 6-(4-chlorophenyl)-2-(3,5-difluorophenyl)-N-[(2S)-1-hydroxypropan-2-yl]pyrimidine-4-carboxamide] | 17 | 
Cc1cccc(-c2nc(C(=O)NCC(C)(C)O)cc(-c3ccc(Cl)cc3)n2)c1 [Example 48, 6-(4-chlorophenyl)-N-(2-hydroxy-2-methylpropyl)-2-(3-methylphenyl)pyrimidine-4-carboxamide] | 26 | 
CC(C)(O)CNC(=O)c1cc(-c2ccc(OC(F)(F)F)cc2)nc(-c2cc(F)cc(F)c2)n1 [Example 24, 2-(3,5-difluorophenyl)-N-(2-hydroxy-2-methylpropyl)-6-[4-(trifluoromethoxy)phenyl]pyrimidine-4-carboxamide] | 28.3 | 
C[C@@H](CO)NC(=O)c1cc(-c2ccc(OC(F)(F)F)cc2)nc(-c2cc(F)cc(F)c2)n1 [Example 39, 2-(3,5-difluorophenyl)-N-[(2S)-1-hydroxypropan-2-yl]-6-[4-(trifluoromethoxy)phenyl]pyrimidine-4-carboxamide] | 12.3 | 
CC(C)(O)CNC(=O)c1cc(-c2ccc(OC(F)(F)F)cc2)nc(-c2ccc(Cl)c(Cl)c2)n1 [Example 22, 2-(3,4-dichlorophenyl)-N-(2-hydroxy-2-methylpropyl)-6-[4-(trifluoromethoxy)phenyl]pyrimidine-4-carboxamide] | 278 | 
Cc1cc(-c2nc(C(=O)NCC(C)(C)O)cc(-c3ccc(OC(F)(F)F)cc3)n2)ccc1F [Example 17, 2-(4-fluoro-3-methylphenyl)-N-(2-hydroxy-2-methylpropyl)-6-[4-(trifluoromethoxy)phenyl]pyrimidine-4-carboxamide] | 637 | 
O=C(NC(CO)C1CCC1)c1cc(-c2ccc(OC(F)(F)F)cc2)nc(-c2cccc(F)c2)n1 (centres unmarked) [Example 85, N-(1-cyclobutyl-2-hydroxyethyl)-2-(3-fluorophenyl)-6-[4-(trifluoromethoxy)phenyl]pyrimidine-4-carboxamide] | 12.8 | 

From US11524944B2, “2-phenylpyrimidine-4-carboxamides as AHR inhibitors” (Bayer Aktiengesellschaft, priority 2017, dated 2022)
